Values quoted from earlier work, collected in patent US20240000142A1, “AEROSOL […] FOR AQUEOUS CANNABINOID COMPOSITIONS” (OMEGA LIFE SCIENCE LTD., priority 2020, published 2024).

Conditions: nicotine as a weak base; "as appreciated by the skilled in the art"

In the case of `CN1CCCC1c1cccnc1` (stereo not shown) [nicotine], the pKa is listed as “about 8”.
